Experimental data published in patent US20170291890A1 (Epizyme, Inc., priority 2014, published 2017).

Molecular target: T1, KDM5A (Homo sapiens, UniProt P29375)
T1 construct: C-terminal FLAG-tagged KDM5A^1-1090 was purchased from BPS Biosciences; FLAG (C); purchased BPS Biosciences
T1 sequence (P29375 1-1090): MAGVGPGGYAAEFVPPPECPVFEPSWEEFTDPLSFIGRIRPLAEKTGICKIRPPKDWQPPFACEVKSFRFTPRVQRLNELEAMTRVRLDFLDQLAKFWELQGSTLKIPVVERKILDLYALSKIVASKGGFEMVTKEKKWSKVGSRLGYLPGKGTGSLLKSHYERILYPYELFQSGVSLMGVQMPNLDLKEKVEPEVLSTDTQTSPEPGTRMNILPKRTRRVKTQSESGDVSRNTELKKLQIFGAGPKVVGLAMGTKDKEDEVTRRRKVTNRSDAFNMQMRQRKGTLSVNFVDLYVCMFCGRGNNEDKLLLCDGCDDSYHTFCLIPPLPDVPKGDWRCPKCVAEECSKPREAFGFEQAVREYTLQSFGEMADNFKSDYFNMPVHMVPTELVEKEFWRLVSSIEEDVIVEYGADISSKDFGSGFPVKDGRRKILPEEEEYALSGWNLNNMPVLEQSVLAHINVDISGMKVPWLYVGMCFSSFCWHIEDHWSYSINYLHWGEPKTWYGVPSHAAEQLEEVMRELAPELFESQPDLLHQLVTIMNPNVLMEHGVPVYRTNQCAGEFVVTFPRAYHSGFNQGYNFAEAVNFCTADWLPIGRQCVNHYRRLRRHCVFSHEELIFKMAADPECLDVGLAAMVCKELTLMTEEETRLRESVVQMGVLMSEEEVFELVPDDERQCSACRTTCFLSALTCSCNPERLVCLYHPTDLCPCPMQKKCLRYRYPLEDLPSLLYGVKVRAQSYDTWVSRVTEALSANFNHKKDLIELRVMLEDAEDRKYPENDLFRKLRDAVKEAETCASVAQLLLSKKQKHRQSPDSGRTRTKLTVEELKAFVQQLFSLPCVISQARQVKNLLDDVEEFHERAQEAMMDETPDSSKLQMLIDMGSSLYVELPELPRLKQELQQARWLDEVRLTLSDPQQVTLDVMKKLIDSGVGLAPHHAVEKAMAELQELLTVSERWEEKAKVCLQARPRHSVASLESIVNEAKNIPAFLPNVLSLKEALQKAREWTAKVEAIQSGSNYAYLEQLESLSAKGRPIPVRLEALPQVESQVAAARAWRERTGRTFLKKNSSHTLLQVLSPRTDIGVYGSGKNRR
Test: KDM5A Assay (SAMDI mass spectrometry demethylase assay)
Type: biochemical
Settings: C-terminal FLAG-tagged KDM5A 1-1090; class symbols; read-out: 5A IC50
Outline: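 FLAG-tagged KDM5A 1-1090 (20 nM) preincubated 30 min with compound in pH 8.0 HEPES buffer with ascorbate, Fe(II), TCEP, then reacted 150 min at 25 °C with H3K4me3 peptide (250 nM) and 2-oxoglutarate (15 μM). Formic acid-quenched; SAMDI-MS substrate/product AUC conversion; IC50 from dose-response.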

| Structure (SMILES) | IC50 [nM] |
| --- | --- |
| COC(=O)c1ccncc1Nc1cnn(C2CCN(C(C)C)CC2)c1C [Compound 103, methyl 3-((1-(1-isopropylpiperidin-4-yl)-5-methyl-1H-pyrazol-4-yl)amino)isonicotinate] | 10000 to 100000 |
| Cc1nn(-c2ccccc2)c(C)c1Nc1cnccc1C(=O)O [Compound 77, 3-((3,5-dimethyl-1-phenyl-1H-pyrazol-4-yl)amino)isonicotinic acid] | 10000 to 100000 |
| Cc1nn(C2CCCN(C)CC2)cc1Nc1cnccc1C(=O)O (centres unmarked) [Compound 111, 3-(3-methyl-1-(1-methylazepan-4-yl)-1H-pyrazol-4-ylamino) isonicotinic acid] | 10000 to 100000 |
| Cc1nn(-c2ccc(O)cc2)c(C)c1Nc1cnccc1C(=O)O [Compound 76, 3-((1-(4-hydroxyphenyl)-3,5-dimethyl-1H-pyrazol-4-yl)amino)isonicotinic acid] | 10000 to 100000 |
| O=C(O)c1ccncc1Nc1c(-c2ccccc2)cnn1-c1ccccc1 [Compound 43, 3-((1,4-Diphenyl-1H-pyrazol-5-yl)amino)isonicotinic acid] | 10000 to 100000 |
| Cc1c(-c2ccccc2)nn(C)c1Nc1cnccc1C(=O)O [Compound 53, 3-((1,4-dimethyl-3-phenyl-1H-pyrazol-5-yl)amino)isonicotinic acid] | 1000 to 10000 |
| Cc1c(Nc2cnccc2C(=O)O)cnn1C1CCNCC1 [Compound 68, 3-((5-methyl-1-(piperidin-4-yl)-1H-pyrazol-4-yl)amino)isonicotinic acid] | 1000 to 10000 |
| CN(C)CCn1ncc(-c2ccccc2)c1Nc1cnccc1C(=O)O [Compound 65, 3-((1-(2-(dimethylamino)ethyl)-4-phenyl-1H-pyrazol-5-yl)amino)isonicotinic acid] | 1000 to 10000 |
| O=C(O)c1ccncc1Nc1c(-c2ccc(F)cc2)cnn1CCN1CCC(F)(F)CC1 [Compound 46, 3-((1-(2-(4,4-difluoropiperidin-1-yl)ethyl)-4-(4-fluorophenyl)-1H-pyrazol-5-yl)amino) isonicotinic acid] | 1000 to 10000 |
| COc1ccc(-n2nc(C)c(Nc3cnccc3C(=O)O)c2C)cc1 [Compound 75, 3-((1-(4-methoxyphenyl)-3,5-dimethyl-1H-pyrazol-4-yl)amino)isonicotinic acid] | 10000 to 100000 |
| CNC(=O)c1cccc(-n2ncc(Nc3cnccc3C(=O)O)c2C)c1 [Compound 59, 3-((5-methyl-1-(3-(methylcarbamoyl)phenyl)-1H-pyrazol-4-yl)amino) isonicotinic acid] | 1000 to 10000 |
| COC(=O)c1ccncc1Nc1cn(C2CCN(C(C)C)CC2)nc1C [Compound 101, methyl 3-((1-(1-isopropylpiperidin-4-yl)-3-methyl-1H-pyrazol-4-yl)amino)isonicotinate] | 10000 to 100000 |
| CN1CCN(CCn2cc(-c3ccccc3)c(Nc3cnccc3C(=O)O)n2)CC1 [Compound 34, 3-((1-(2-(4-Methylpiperazin-1-yl)ethyl)-4-phenyl-1H-pyrazol-3-yl)amino)isonicotinic acid] | 10000 to 100000 |
| N[C@H]1CC[C@H](n2nc(-c3ccccc3)cc2Nc2cnccc2C(=O)O)CC1 [Compound 38, 3-((1-((trans)-4-aminocyclohexyl)-3-phenyl-1H-pyrazol-5-yl)amino)isonicotinic acid] | 1000 to 10000 |
| O=C(O)c1ccncc1Nc1cc(-c2ccccc2)nn1-c1ccncc1 [Compound 56, 3-((3-phenyl-1-(pyridin-4-yl)-1H-pyrazol-5-yl)amino) isonicotinic acid] | 1000 to 10000 |
| Cc1n[nH]c(C)c1Nc1cnccc1C(=O)O [Compound 16, 3-((3,5-Dimethyl-1H-pyrazol-4-yl)amino)isonicotinic acid] | 10000 to 100000 |

Other lines, results leading:

| IC50 [nM] | Structure (SMILES) |
| --- | --- |
| 100 to 1000 | Cc1c(Nc2cnccc2C(=O)O)cnn1C1CCCN(C)CC1 (centres unmarked) [Compound 112, 3-((5-methyl-1-(1-methylazepan-4-yl)-1H-pyrazol-4-yl)amino)isonicotinic acid] |
| 1 to 100 | Cc1cn(-c2ccccc2)nc1Nc1cnccc1C(=O)O [Compound 62, 3-((4-methyl-1-phenyl-1H-pyrazol-3-yl)amino) isonicotinic acid] |
| 1 to 100 | Cn1nc(-c2cccc(Cl)c2)cc1Nc1cnccc1C(=O)O [Compound 25, 3-((3-(3-chlorophenyl)-1-methyl-1H-pyrazol-5-yl)amino) isonicotinic acid] |
| 1000 to 10000 | Cn1cc(-c2ccccc2F)c(Nc2cnccc2C(=O)O)n1 [Compound 11, 3-((4-(2-Fluorophenyl)-1-methyl-1H-pyrazol-3-yl)amino) isonicotinic acid] |
| 1000 to 10000 | Cc1c(Nc2cnccc2C(=O)O)cnn1-c1ccccc1 [Compound 20, 3-((5-methyl-1-phenyl-1H-pyrazol-4-yl)amino)isonicotinic acid] |
| 1000 to 10000 | CNC(=O)c1ccc(-n2ncc(Nc3cnccc3C(=O)O)c2C)cc1 [Compound 58, 3-((5-methyl-1-(4-(methylcarbamoyl)phenyl)-1H-pyrazol-4-yl)amino) isonicotinic acid] |
| 1 to 100 | O=C(O)c1ccncc1Nc1nn(CCN2CCC(F)(F)CC2)cc1-c1ccc(F)cc1 [Compound 45, 3-((1-(2-(4,4-difluoropiperidin-1-yl)ethyl)-4-(4-fluorophenyl)-1H-pyrazol-3-yl)amino)isonicotinic acid] |
| 100 to 1000 | Cn1cc(-c2cccc(F)c2)c(Nc2cnccc2C(=O)O)n1 [Compound 9, 3-((4-(3-Fluorophenyl)-1-methyl-1H-pyrazol-3-yl)amino) isonicotinic acid] |
| 100 to 1000 | COCCn1nc(-c2ccccc2)cc1Nc1cnccc1C(=O)O [Compound 27, 3-((1-(2-Methoxyethyl)-3-phenyl-1H-pyrazol-5-yl)amino) isonicotinic acid] |
| 1000 to 10000 | N[C@H]1CC[C@@H](n2nc(-c3ccccc3)cc2Nc2cnccc2C(=O)O)CC1 [Compound 37, 3-((1-((cis)-4-aminocyclohexyl)-3-phenyl-1H-pyrazol-5-yl)amino)isonicotinic acid] |
| 1 to 100 | CN(C)CCn1cc(-c2ccccc2)c(Nc2cnccc2C(=O)O)n1 [Compound 64, 3-((1-(2-(dimethylamino)ethyl)-4-phenyl-1H-pyrazol-3-yl)amino)isonicotinic acid] |
| 1000 to 10000 | Cc1c(Nc2cnccc2C(=O)O)cnn1C1CCN(C(C)C)CC1 [Compound 104] |
| 100 to 1000 | O=C(O)c1ccncc1Nc1nn(C2CCOCC2)cc1-c1ccccc1 [Compound 72, 3-((4-phenyl-1-(tetrahydro-2H-pyran-4-yl)-1H-pyrazol-3-yl)amino)isonicotinic acid] |
| 100 to 1000 | Cc1nn(C2CCN(C(C)C)CC2)cc1Nc1cnccc1C(=O)O [Compound 102, 3-((1-(1-isopropylpiperidin-4-yl)-3-methyl-1H-pyrazol-4-yl)amino)isonicotinic acid] |
| 1000 to 10000 | Cc1cc(Nc2cnccc2C(=O)O)n(-c2ccccc2)n1 [Compound 61, 3-((3-methyl-1-phenyl-1H-pyrazol-5-yl)amino) isonicotinic acid] |
| 100 to 1000 | Cc1c(Nc2cnccc2C(=O)O)cnn1Cc1ccccc1 [Compound 33, 3-((1-benzyl-5-methyl-1H-pyrazol-4-yl)amino)isonicotinic acid] |
| 100 to 1000 | O=C(O)c1ccncc1Nc1cc(-c2ccccc2)nn1-c1ccccc1 [Compound 21, 3-((1,3-Diphenyl-1H-pyrazol-5-yl)amino)isonicotinic acid] |
| 100 to 1000 | Cc1nn(C2CCCNCC2)cc1Nc1cnccc1C(=O)O (single isomer, unassigned) [Compound 116] |
| 100 to 1000 | Cc1nn(CCN(C)C)cc1Nc1cnccc1C(=O)O [Compound 107, 3-(1-(2-(dimethylamino)ethyl)-3-methyl-1H-pyrazol-4-ylamino) isonicotinic acid] |
| 1 to 100 | CN(C)CCCn1cc(-c2ccccc2)c(Nc2cnccc2C(=O)O)n1 [Compound 51, 3-((1-(3-(dimethylamino)propyl)-4-phenyl-1H-pyrazol-3-yl)amino) isonicotinic acid] |
| 1 to 100 | Cc1cn(-c2ccccc2C#N)nc1Nc1cnccc1C(=O)O [Compound 71, 3-((1-(2-cyanophenyl)-4-methyl-1H-pyrazol-3-yl)amino) isonicotinic acid] |
| 1 to 100 | CCn1nc(-c2ccccc2)cc1Nc1cnccc1C(=O)O [Compound 36, 3-((1-Ethyl-3-phenyl-1H-pyrazol-5-yl)amino)isonicotinic acid] |
